Experimental data as given in patent publication EP2949653A1, “ISOXAZOLE DERIVATIVES AS LEUKOTRIENE BIOSYNTHESIS INHIBITORS” (Banoglu, Erden, priority 2014, dated 2015).
pIC50: −log10 of the molar value.

What was measured:
5-LO = target: T1, 5-LO (Homo sapiens, UniProt P09917); experiment: 5-LO mediated product synthesis in HEK293 cells transfected with only 5-LO; type: cell-based; conditions: 2.5 µM A23187 plus 3 µM AA (Figure 7)
T1 sequence (P09917 1-674): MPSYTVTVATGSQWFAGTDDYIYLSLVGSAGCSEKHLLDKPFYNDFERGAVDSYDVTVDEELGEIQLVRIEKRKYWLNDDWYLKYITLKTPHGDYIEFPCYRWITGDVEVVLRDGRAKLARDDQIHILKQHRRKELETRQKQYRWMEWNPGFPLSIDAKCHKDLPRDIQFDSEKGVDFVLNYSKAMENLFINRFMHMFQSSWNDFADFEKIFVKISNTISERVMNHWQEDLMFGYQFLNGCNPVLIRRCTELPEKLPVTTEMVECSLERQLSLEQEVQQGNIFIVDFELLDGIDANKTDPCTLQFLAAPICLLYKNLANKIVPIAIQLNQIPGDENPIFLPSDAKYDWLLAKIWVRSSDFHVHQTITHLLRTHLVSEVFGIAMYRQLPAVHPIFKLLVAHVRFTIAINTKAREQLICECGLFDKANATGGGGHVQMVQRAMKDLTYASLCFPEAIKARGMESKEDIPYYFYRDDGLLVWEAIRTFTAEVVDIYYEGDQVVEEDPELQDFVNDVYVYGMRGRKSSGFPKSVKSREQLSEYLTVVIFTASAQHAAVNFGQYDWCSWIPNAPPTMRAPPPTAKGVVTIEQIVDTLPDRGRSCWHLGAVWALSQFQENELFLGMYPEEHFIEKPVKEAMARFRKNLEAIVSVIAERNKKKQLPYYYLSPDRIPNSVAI
Protocol: Compound 9hj inhibited 5-LO mediated product synthesis in HEK293 cells transfected with only 5-LO, with IC50 of 900 nM. […] After preincubation of cells with 9hj for 15 min at 37°C, cells were stimulated with 2.5 µM A23187 plus 3 µM AA for 10 min at 37°C. Data are expressed as percentage of vehicle control (0.1% DMSO). 100% controls correspond to 157.48 ng mL^-1 for 5-LO transfected cells and 155.15 ng mL^-1 for 5-LO plus FLAP transfected cells.

[1] = tested on: 5-LO mediated product synthesis; experiment: 5-LO mediated product synthesis in neutrophils stimulated with LPS plus fMLP; type: cell-based; conditions: Homo sapiens, Neutrophil
15-LO = target: T2, 15-LO (Homo sapiens, UniProt P16050); experiment: 15-LO inhibition in A23187-stimulated neutrophils; type: cell-based; conditions: up to 10 µM in A23187-stimulated neutrophils
T2 construct: 12-LO or 15-LO, up to 10 µM in A23187-stimulated neutrophils; endogenous in cells; host or cells: A23187-stimulated neutrophils
T2 sequence (P16050 1-662): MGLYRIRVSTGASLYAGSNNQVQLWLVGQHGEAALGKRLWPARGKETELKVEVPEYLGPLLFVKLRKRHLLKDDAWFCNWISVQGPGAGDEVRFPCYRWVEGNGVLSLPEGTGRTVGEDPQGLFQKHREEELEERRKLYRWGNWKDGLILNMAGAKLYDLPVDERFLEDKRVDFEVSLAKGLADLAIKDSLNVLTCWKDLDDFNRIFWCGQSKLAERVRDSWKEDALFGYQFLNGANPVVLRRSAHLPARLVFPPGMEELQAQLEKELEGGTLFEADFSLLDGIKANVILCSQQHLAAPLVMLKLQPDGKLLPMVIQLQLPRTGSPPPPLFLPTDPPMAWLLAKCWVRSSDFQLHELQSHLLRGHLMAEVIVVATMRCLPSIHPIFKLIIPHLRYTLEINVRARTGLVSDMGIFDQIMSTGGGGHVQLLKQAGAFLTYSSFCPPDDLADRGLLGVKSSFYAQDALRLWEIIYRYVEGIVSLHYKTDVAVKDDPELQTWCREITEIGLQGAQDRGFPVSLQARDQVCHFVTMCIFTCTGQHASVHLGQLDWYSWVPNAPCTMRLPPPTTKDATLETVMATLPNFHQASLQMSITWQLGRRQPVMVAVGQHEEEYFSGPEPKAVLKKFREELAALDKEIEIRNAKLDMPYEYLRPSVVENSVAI

[2] = tested on: 5-LO mediated product formation; experiment: 5-LO mediated product formation in intact neutrophils stimulated with A23187 (cell-based); conditions: Homo sapiens, Neutrophil; A23187, in the presence of 20 µM to 80 µM exogenous arachidonic acid (Figure 2); read-out: IC50 5-LO mediated product formation in human neutrophils with exogenous AA

pIC50 (5-LO): 6.05
pIC50 [1]: 8.00
inhibition of 15-LO (15-LO): did not inhibit
pIC50 [2]: 6.46 to 6.77
Compound: O=C(O)c1noc(-c2ccc(OCc3ccc4ccccc4n3)cc2)c1-c1ccc(Cl)cc1 [Compound 9hj, 4-(4-Chlorophenyl)-5-(4-(quinolin-2-ylmethoxy)phenyl)isoxazole-3-carboxylic acid]
